Results: the NIST ThermoML archive (doi:10.1016/j.jct.2019.05.002)

Test: xn = mol fraction of the nth substance listed
Conditions: 100 kPa, Liquid; for speed of sound: Frequency=3 MHz, Single path-length method; for mass density: Vibrating tube method

CCC(O)CO (stereo not given) [1,2-butanediol] + CCCC(=O)OCC
Conditions	mass density [kg/m3]	speed of sound [m/s]
298.15 K, x2 = 0	998.56	1452.5
298.15 K, x2 = 0.1011	986	1424.2
298.15 K, x2 = 0.2032	973.31	1395.5
298.15 K, x2 = 0.3034	960.87	1367.4
298.15 K, x2 = 0.4004	948.81	1340.2
298.15 K, x2 = 0.5064	935.64	1310.5
298.15 K, x2 = 0.6021	923.76	1283.6
298.15 K, x2 = 0.7043	911.06	1254.9
298.15 K, x2 = 0.8009	899.06	1227.9
298.15 K, x2 = 0.9012	886.59	1199.7
303.15 K, x2 = 0	994.75	1437.9
303.15 K, x2 = 0.1011	982.02	1408.9
303.15 K, x2 = 0.2032	969.16	1379.6
303.15 K, x2 = 0.3034	956.55	1350.9
303.15 K, x2 = 0.4004	944.33	1323
303.15 K, x2 = 0.5064	930.98	1292.6
303.15 K, x2 = 0.6021	918.93	1265.2
303.15 K, x2 = 0.7043	906.06	1235.8
303.15 K, x2 = 0.8009	893.9	1208.1
303.15 K, x2 = 0.9012	881.27	1179.3
308.15 K, x2 = 0	990.92	1423.3
308.15 K, x2 = 0.1011	978.03	1393.7
308.15 K, x2 = 0.2032	965.01	1363.7
308.15 K, x2 = 0.3034	952.23	1334.3
308.15 K, x2 = 0.4004	939.86	1305.9
308.15 K, x2 = 0.5064	926.34	1274.8
308.15 K, x2 = 0.6021	914.14	1246.7
308.15 K, x2 = 0.7043	901.11	1216.7
308.15 K, x2 = 0.8009	888.79	1188.4
308.15 K, x2 = 0.9012	876	1159
313.15 K, x2 = 0	987.11	1408.7
313.15 K, x2 = 0.1011	974.05	1378.4
313.15 K, x2 = 0.2032	960.87	1347.8
313.15 K, x2 = 0.3034	947.93	1317.8
313.15 K, x2 = 0.4004	935.41	1288.7
313.15 K, x2 = 0.5064	921.72	1256.9
313.15 K, x2 = 0.6021	909.36	1228.3
313.15 K, x2 = 0.7043	896.16	1197.6
313.15 K, x2 = 0.8009	883.69	1168.7
313.15 K, x2 = 0.9012	870.74	1138.6
318.15 K, x2 = 0	983.28	1394.1
318.15 K, x2 = 0.1011	970.05	1363.2
318.15 K, x2 = 0.2032	956.7	1331.9
318.15 K, x2 = 0.3034	943.59	1301.2
318.15 K, x2 = 0.4004	930.9	1271.5
318.15 K, x2 = 0.5064	917.03	1239.1
318.15 K, x2 = 0.6021	904.51	1209.8
318.15 K, x2 = 0.7043	891.14	1178.5
318.15 K, x2 = 0.8009	878.51	1148.9
318.15 K, x2 = 0.9012	865.39	1118.2
323.15 K, x2 = 0	979.46	1379.5
323.15 K, x2 = 0.1011	966.07	1347.9
323.15 K, x2 = 0.2032	952.55	1316
323.15 K, x2 = 0.3034	939.28	1284.7
323.15 K, x2 = 0.4004	926.44	1254.4
323.15 K, x2 = 0.5064	912.4	1221.3
323.15 K, x2 = 0.6021	899.72	1191.4
323.15 K, x2 = 0.7043	886.19	1159.4
323.15 K, x2 = 0.8009	873.4	1129.2
323.15 K, x2 = 0.9012	860.11	1097.9
